The record followed here is ChEMBL document CHEMBL1137047, “Induction of G2/M cell cycle arrest and apoptosis by a benz[f]indole-4,9-dione analog in cultured human lung (A549) cancer cells” (Bioorg Med Chem Lett, 2004).

One may read the IC50 as the concentration that inhibits the measured activity by half.

Common to all, as to format: functional, cell-based
What all share (conditions): Homo sapiens

One experiment relates to A549. The experiment is described as follows: Inhibitory activity against growth of cultured A-549 cell line.
In a further experiment the test system is SNU-638. In words: inhibitory activity against growth of cultured SNU-638 cell line.
Another experiment has as its system Col2. In words: inhibitory activity against growth of cultured Col2 cell line.

Turning to `CCOC(=O)c1c2c(n(C)c1N)C(=O)c1ccccc1C2=O`, the IC50 in the experiment on A549 was 630 nM; in the experiment with SNU-638, 1680 nM; in the experiment with Col2, 340 nM.
